Source: patent US20110312945A1, “CRTH2 MODULATORS” (priority 2008, published 2011)

Molecular target: T1, CRTH2 (Homo sapiens, UniProt Q9Y5Y4)
T1 construct: polymorphonuclear cells (0.5 ml; 10^6/ml cells) in PBS containing 0.9 mM CaCl2 and 0.5 mM MgCl2; endogenous in cells; host or cells: polymorphonuclear cells (eosinophils gated by flow cytometry)
T1 sequence (Q9Y5Y4 1-395): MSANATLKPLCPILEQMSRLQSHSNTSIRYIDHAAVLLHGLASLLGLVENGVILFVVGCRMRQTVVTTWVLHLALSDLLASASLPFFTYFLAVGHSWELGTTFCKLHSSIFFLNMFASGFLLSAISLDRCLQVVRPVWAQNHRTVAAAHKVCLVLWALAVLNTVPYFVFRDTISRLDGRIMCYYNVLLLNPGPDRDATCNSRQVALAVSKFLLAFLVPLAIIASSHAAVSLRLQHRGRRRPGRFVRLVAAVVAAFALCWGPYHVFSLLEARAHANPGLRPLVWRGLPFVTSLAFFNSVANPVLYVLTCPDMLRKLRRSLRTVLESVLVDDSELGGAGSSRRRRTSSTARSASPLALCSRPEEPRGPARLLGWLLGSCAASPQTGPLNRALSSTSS
Test: DPBS CD11b Antagonist Assay
Type: cell-based
Conditions: polymorphonuclear cells in PBS, eosinophil CD11b expression, challenge with 15R-Methyl-PGD2 (10 nM)
Method: DPBS CD11b Antagonist Assay. The potential CRTH2 antagonist activity of certain compounds was tested using a CD11b expression assay using essentially the method described by Monneret et al. (J Pharmacol Exp Ther 304:349-55, 2003). Briefly, polymorphonuclear cells (0.5 ml; 10^6/ml cells) in PBS containing 0.9 mM CaCl2 and 0.5 mM MgCl2) were preincubated with various concentrations of test compounds at room temperature for 10 minutes before they were challenged with the agonist 15R-Methyl-PGD2 (10 nM). The incubations were terminated by the addition of ice-cold FACSFlow (BD Biosciences; Cat# 342003) and centrifugation (400 g for 5 minutes at 4° C.). The cells were then incubated for 30 minutes at 4° C. with a mixture of PE-labeled mouse anti-human VLA-4 (5 μl; BD Biosciences) and FITC-labeled mouse anti-human CD11b (10 μl; Beckman Coulter). The cells were then incubated with Optilyse C (0.25 ml; Beckman Coulter) for 15 minutes, centrifuged, and then fixed in PBS (0.4 ml; calcium and magnesium free) containing 1% formaldehyde. The distribution of fluorescence intensities among 60,000 cells was measured by flow cytometry. Eosinophils were gated out on the basis of their granularity (high side scatter) and labeling with VLA-4 (PE fluorescence). CD11b was then measured in the eosinophil region on the basis of fluorescence due to FITC. All data were corrected for the value obtained for the corresponding isotope control antibody.

IC50	Structure (SMILES)
< 5 nM	Cc1c(Cc2ccc(S(=O)(=O)NC3CC3)cc2)c2c(n1CC(=O)O)CCC(C)(C)C2 [Example I-15, 2-(3-(4-(N-Cyclopropylsulfamoyl)benzyl)-2,5,5-trimethyl-4,5,6,7-tetrahydro-1H-indol-1-yl)acetic acid]
5 to 100 nM	Cc1c(Cc2ccc(S(=O)(=O)N3CCCCCC3)cc2)c2c(n1CC(=O)O)CCC(C)(C)C2 [Example I-16, 2-(3-(4-(Azepan-1-ylsulfonyl)benzyl)-2,5,5-trimethyl-4,5,6,7-tetrahydro-1H-indol-1-yl)acetic acid]
< 5 nM	Cc1c(Cc2ccc(S(=O)(=O)N(C)C)cc2)c2c(n1CC(=O)O)CCC(C)(C)C2 [Example I-18, 2-(3-(4-(N,N-Dimethylsulfamoyl)benzyl)-2,5,5-trimethyl-4,5,6,7-tetrahydro-1H-indol-1-yl)acetic acid]
100 to 500 nM	CCOC(=O)Cn1c(C)c(Cc2ccccc2S(=O)(=O)N2CCOCC2)c2c1CCC(C)(C)C2 [Example I-25, Ethyl 2-(2,5,5-trimethyl-3-(2-(morpholinosulfonyl)benzyl)-4,5,6,7-tetrahydro-1H-indol-1-yl)acetate]
< 5 nM	Cc1c(Cc2ccccc2S(=O)(=O)N2CCOCC2)c2c(n1CC(=O)O)CC(C)(C)CC2 [Example I-26, 2-(2,6,6-trimethyl-3-(2-(morpholinosulfonyl)benzyl)-4,5,6,7-tetrahydro-1H-indol-1-yl)acetic acid]
5 to 100 nM	Cc1c(Cc2cccc(S(=O)(=O)N3CCOCC3)c2)c2c(n1CC(=O)O)CCC(C)(C)C2 [Example I-27, 2-(2,5,5-trimethyl-3-(3-(morpholinosulfonyl)benzyl)-4,5,6,7-tetrahydro-1H-indol-1-yl)acetic acid]
< 5 nM	Cc1c(Cc2ccccc2S(=O)(=O)N2CCOCC2)c2c(n1[C@H](C)C(=O)O)CCC(C)(C)C2 [Example I-35, (R)-2-(2,5,5-trimethyl-3-(2-(morpholinosulfonyl)benzyl)-4,5,6,7-tetrahydro-1H-indol-1-yl)propanoic acid]
< 5 nM	Cc1c(Sc2ccc(S(=O)(=O)N3CCOCC3)cc2)c2c(n1CC(=O)O)CCC(C)(C)C2 [Example I-37, 2-(2,5,5-trimethyl-3-(4-(morpholinosulfonyl)phenylthio)-4,5,6,7-tetrahydro-1H-indol-1-yl)acetic acid]
> 500 nM	Cc1c(C(O)c2ccccc2S(=O)(=O)N2CCCC2)c2c(n1CC(=O)O)CC(C)(C)CC2=O (centres unmarked) [Example I-50, 2-(3-(hydroxy(2-(pyrrolidin-1-ylsulfonyl)phenyl)methyl)-2,6,6-trimethyl-4-oxo-4,5,6,7-tetrahydro-1H-indol-1-yl)acetic acid]
< 5 nM	Cc1c(Cc2ccccc2S(=O)(=O)N(C)C)c2c(n1CC(=O)O)CC(C)(C)CC2=O [Example I-52, 2-(3-(2-(N,N-dimethylsulfamoyl)benzyl)-2,6,6-trimethyl-4-oxo-4,5,6,7-tetrahydro-1H-indol-1-yl)acetic acid]
> 500 nM	CCOC(=O)Cn1c(C)c(Sc2ccc(Br)cc2S(=O)(=O)N2CCCC2)c2c1CC(C)(C)CC2=O [Example I-53, ethyl 2-(3-(4-bromo-2-(pyrrolidin-1-ylsulfonyl)phenylthio)-2,6,6-trimethyl-4-oxo-4,5,6,7-tetrahydro-1H-indol-1-yl)acetate]
100 to 500 nM	CCOC(=O)Cn1c(C)c(Sc2ccc(C)cc2S(=O)(=O)N2CCCC2)c2c1CC(C)(C)CC2=O [Example I-54, ethyl 2-(2,6,6-trimethyl-3-(4-methyl-2-(pyrrolidin-1-ylsulfonyl)phenylthio)-4-oxo-4,5,6,7-tetrahydro-1H-indol-1-yl)acetate]
100 to 500 nM	CCOC(=O)Cn1c(C)c(Cc2ccccc2S(=O)(=O)N2CCOCC2)c2c1CC(C)(C)CC2=O [Example I-56, ethyl 2-(2,6,6-trimethyl-3-(2-(morpholinosulfonyl)benzyl)-4-oxo-4,5,6,7-tetrahydro-1H-indol-1-yl)acetate]
5 to 100 nM	CCOC(=O)Cn1c(C)c(Sc2ccc(F)cc2S(=O)(=O)N2CCCC2)c2c1CC(C)(C)CC2=O [Example I-57, Ethyl 2-(3-(4-fluoro-2-(pyrrolidin-1-ylsulfonyl)phenylthio)-2,6,6-trimethyl-4-oxo-4,5,6,7-tetrahydro-1H-indol-1-yl)acetate]
5 to 100 nM	COC(=O)Cn1c(C)c(Cc2ccccc2S(=O)(=O)N2CCCC2)c2c1CC(C)(C)CC2=O [Example I-58, Methyl 2-(2,6,6-trimethyl-4-oxo-3-(2-(pyrrolidin-1-ylsulfonyl)benzyl)-4,5,6,7-tetrahydro-1H-indol-1-yl)acetate]
5 to 100 nM	COC(=O)Cn1c(C)c(Cc2ccccc2S(=O)(=O)N2CCOCC2)c2c1CC(C)(C)CC2=O [Example I-59, methyl 2-(2,6,6-trimethyl-3-(2-(morpholinosulfonyl)benzyl)-4-oxo-4,5,6,7-tetrahydro-1H-indol-1-yl)acetate]
> 500 nM	Cc1c(Cc2ccccc2S(=O)(=O)N2CCOCC2)c2c(n1CC(=O)OC(C)C)CC(C)(C)CC2=O [Example I-60, isopropyl 2-(2,6,6-trimethyl-3-(2-(morpholinosulfonyl)benzyl)-4-oxo-4,5,6,7-tetrahydro-1H-indol-1-yl)acetate]
< 5 nM	Cc1c(Cc2ccccc2S(=O)(=O)N2CCCC2)c2c(n1CC(=O)OCCN1CCOCC1)CC(C)(C)CC2=O [Example I-62, 2-morpholinoethyl 2-(2,6,6-trimethyl-4-oxo-3-(2-(pyrrolidin-1-ylsulfonyl)benzyl)-4,5,6,7-tetrahydro-1H-indol-1-yl)acetate]
5 to 100 nM	CCOC(=O)Cn1c(C)c(Cc2ccccc2S(=O)(=O)N(C)c2ccccc2)c2c1CC(C)(C)CC2=O [Example I-66, ethyl 2-(2,6,6-trimethyl-3-(2-(N-methyl-N-phenylsulfamoyl)benzyl)-4-oxo-4,5,6,7-tetrahydro-1H-indol-1-yl)acetate]
> 500 nM	Cc1c(S(=O)(=O)N(C)c2ccccc2)c2c(n1CC(=O)O)CC(C)(C)CC2=O [Example I-75, 2-(2,6,6-trimethyl-3-(N-methyl-N-phenylsulfamoyl)-4-oxo-4,5,6,7-tetrahydro-1H-indol-1-yl)acetic acid]
< 5 nM	Cc1c(Cc2ccccc2S(=O)(=O)N2CCCC2)c2c(n1CC(=O)O)CCCC2=O [Example I-77, 2-(2-methyl-4-oxo-3-(2-(pyrrolidin-1-ylsulfonyl)benzyl)-4,5,6,7-tetrahydro-1H-indol-1-yl)acetic acid]
< 5 nM	Cc1c(Cc2ccccc2S(=O)(=O)c2cccs2)c2c(n1CC(=O)O)CC(C)(C)CC2=O [Example I-81, 2-(2,6,6-trimethyl-4-oxo-3-(2-(thiophen-2-ylsulfonyl)benzyl)-4,5,6,7-tetrahydro-1H-indol-1-yl)acetic acid]
< 5 nM	Cc1c(Cc2ccccc2S(=O)(=O)C2CCCCC2)c2c(n1CC(=O)O)CC(C)(C)CC2=O [Example I-82, 2-(3-(2-(cyclohexylsulfonyl)benzyl)-2,6,6-trimethyl-4-oxo-4,5,6,7-tetrahydro-1H-indol-1-yl)acetic acid]
> 500 nM	Cc1c(Cc2ccccc2S(=O)(=O)N2CCCC2)c2c(n1CC(N)=O)CC(C)(C)CC2=O [Example I-84, 2-(2,6,6-trimethyl-4-oxo-3-(2-(pyrrolidin-1-ylsulfonyl)benzyl)-4,5,6,7-tetrahydro-1H-indol-1-yl)acetamide]
< 5 nM	Cc1c(Cc2ccccc2S(=O)(=O)N2CCCC2)c2c(n1CC(=O)O)CC(C)(C)C(C)(C)C2=O [Example I-95, 2-(2,5,5,6,6-pentamethyl-4-oxo-3-(2-(pyrrolidin-1-ylsulfonyl)benzyl)-4,5,6,7-tetrahydro-1H-indol-1-yl)acetic acid]
< 5 nM	Cc1c(Cc2ccccc2S(=O)(=O)N2CCCC2)c2c(n1CC(=O)O)CC(C)(C)C(F)(F)C2=O [Example I-96, 2-(5,5-difluoro-2,6,6-trimethyl-4-oxo-3-(2-(pyrrolidin-1-ylsulfonyl)benzyl)-4,5,6,7-tetrahydro-1H-indol-1-yl)acetic acid]
